Test: xn = mol fraction of the nth substance listed

[2H]O[2H] + Cc1cccnc1
viscosity [mPa·s], 101 kPa
Details | x2 = 0.0233 | x2 = 0.05084 | x2 = 0.08428 | x2 = 0.1255
297.15 K | 1.471 | 1.954 | 2.315 | 2.706
298.15 K | 1.433 | 1.899 | 2.249 | 2.627
299.15 K | 1.389 | 1.846 | 2.189 | 2.558
300.15 K | 1.355 | 1.794 | 2.122 | 2.483
301.15 K | 1.32 | 1.751 | 2.059 | 2.401
302.15 K | 1.284 | 1.7 | 1.999 | 2.33
303.15 K | 1.254 | 1.656 | 1.949 | 2.267
304.15 K | 1.225 | 1.615 | 1.893 | 2.2
305.15 K | 1.191 | 1.578 | 1.843 | 2.14
306.15 K | 1.165 | 1.538 | 1.793 | 2.083
307.15 K | 1.136 | 1.502 | 1.751 | 2.033
308.15 K | 1.104 | 1.467 | 1.708 | 1.981
309.15 K | 1.082 | 1.434 | 1.665 | 1.932
310.15 K | 1.055 | 1.404 | 1.631 | 1.889
311.15 K | 1.034 | 1.371 | 1.589 | 1.841
312.15 K | 1.007 | 1.344 | 1.555 | 1.804
313.15 K | 0.984 | 1.32 | 1.522 | 1.765

C=CC#N + ClC(Cl)(Cl)Cl
viscosity [mPa·s], 101 kPa
Details | 293.15 K | 298.15 K | 303.15 K | 313.15 K | 323.15 K
x1 = 0.007 | 0.988 | 0.911 | 0.847 | 0.749 | 0.671
x1 = 0.028 | 0.979 | 0.903 | 0.841 | 0.772 | 0.695
x1 = 0.126 | 0.853 | 0.783 | 0.721 | 0.661 | 0.616

C[N+](CCO)(CCO)CCO.[Cl-] + NC(N)=O
100 kPa, x1 = 0.5
Details | viscosity [mPa·s]
293.15 K | 6026
298.15 K | 3662
303.15 K | 2352
308.15 K | 1540
313.15 K | 1026
318.15 K | 717
323.15 K | 505

Cn1cc[n+](CCC[n+]2ccccc2)c1.[Br-].[Br-] + O
viscosity [mPa·s], 101 kPa
Details | 293.15 K | 298.15 K | 303.15 K | 308.15 K | 313.15 K
x1 = 0.0003405 | 1.016 | 0.905 | 0.811 | 0.734 | 0.667
x1 = 0.0004322 | 1.019 | 0.907 | 0.814 | 0.737 | 0.669
x1 = 0.0005421 | 1.021 | 0.909 | 0.816 | 0.739 | 0.672
x1 = 0.000689 | 1.023 | 0.911 | 0.819 | 0.742 | 0.675
x1 = 0.0008251 | 1.032 | 0.918 | 0.827 | 0.744 | 0.678
x1 = 0.0009589 | 1.035 | 0.921 | 0.829 | 0.747 | 0.681
x1 = 0.001109 | 1.038 | 0.924 | 0.832 | 0.749 | 0.684
x1 = 0.00128 | 1.041 | 0.927 | 0.835 | 0.752 | 0.687
x1 = 0.001457 | 1.043 | 0.93 | 0.837 | 0.755 | 0.689
x1 = 0.001664 | 1.047 | 0.933 | 0.839 | 0.758 | 0.691
x1 = 0.001904 | 1.05 | 0.936 | 0.841 | 0.761 | 0.693
x1 = 0.002122 | 1.053 | 0.939 | 0.843 | 0.763 | 0.696
x1 = 0.002357 | 1.057 | 0.942 | 0.846 | 0.766 | 0.699

O=C[C@@H](O)[C@@H](O)[C@H](O)[C@H](O)CO + O
viscosity [mPa·s], 101 kPa
Details | 293.15 K | 303.15 K | 308.15 K | 313.15 K
x1 = 0.0026 | 1.052 | 0.8259 | – | 0.6702
x1 = 0.005 | 1.116 | 0.8625 | 0.7717 | 0.6965

Reference: the CheMixHub viscosity set
